Values belong to the molecule of their own block, whether it stands above or below them.
Experiments:
S. mutans = assay: MIC microdilution, gram positive; type: cell-based, Streptococcus mutans; settings: Table 1, Gram Positive
Experimental: (§1) The MIC's for the compounds were determined by a modified microdilution tube dilution method described in “Methods for Dilution Antimicrobial Susceptibility Tests for Bacteria that Grow Aerobically” (National Committee for Clinical Laboratory Standards Approved Standards, 1997, NCCLS document M7-A4). In general the modifications were made because of the unique growth requirements for the fastidious oral organisms and for those bacteria that require anaerobic conditions. Reference is also made to “Methods for Antimicrobial Susceptibility of Anaerobic Bacteria” (National Committee for Clinical Laboratory Standards Approved Standards, 1997, NCCLS document M11-A4). Briefly, the methods were as follows. Cultures were grown for 18-24hrs (aerobic bacteria) or 48-72 hrs (anaerobic bacteria) in the appropriate medium. For aerobic bacteria full strength brain heart infusion medium (BHI, Difco) was used. For anaerobic bacteria, half strength BHI (18.5 g/L) was supplemented by adding yeast extract (10 g/L), hemin (0.29 mL of a stock solution containing 0.1 g/200 mL dH2O) and menadione (15 mL of a stock solution containing 0.15 mL in 30 mL 95% EtOH) was used. Initial cultures were diluted to approximately 1×10^8 CFU/mL for use as an inoculum. Each assay received 10 μL of the inoculum. The drugs were prepared from a stock solution contained in dimethyl sulfoxide (DMSO) and diluted into the culture medium. Final concentrations of the drugs ranged from 50 to 0.05 μg/assay. The tests were run in duplicate and were incubated appropriately with regard to oxygen requirements for 24 to 48 hrs as required. Anaerobic incubation was an atmosphere of 5% CO2, 10% H2, with the balance N2. The lowest concentration of an antimicrobial agent at which no visible growth is noted was referred to as the MIC.

S. sanguis = assay: MIC microdilution, gram positive; type: cell-based, Streptococcus sanguis; settings: Table 1, Gram Positive
Experimental: as §1

S.salivarius = assay: MIC microdilution, gram positive; type: cell-based, Streptococcus salivarius; settings: Table 1, Gram Positive
Experimental: as §1

P. acnes 11828 = assay: MIC microdilution, gram positive; type: cell-based, Propionibacterium acnes; settings: Table 1, Gram Positive
Experimental: as §1

P. acnes 6922 = assay: MIC microdilution, gram positive; type: cell-based, Propionibacterium acnes; settings: Table 1, Gram Positive
Experimental: as §1

A. viscosus = assay: MIC microdilution, gram positive; type: cell-based, Actinomyces viscosus; settings: Table 2, Gram Positive
Experimental: as §1

S. aureus = assay: MIC microdilution, gram positive; type: cell-based, Staphlococcus aureus
Experimental: (§2) The MIC's for the compounds were determined by a modified microdilution tube dilution method described in “Methods for Dilution Antimicrobial Susceptibility Tests for Bacteria that Grow Aerobically” (National Committee for Clinical Laboratory Standards Approved Standards, 1997, NCCLS document M7-A4). In general the modifications were made because of the unique growth requirements for the fastidious oral organisms and for those bacteria that require anaerobic conditions. Reference is also made to “Methods for Antimicrobial Susceptibility of Anaerobic Bacteria” (National Committee for Clinical Laboratory Standards Approved Standards, 1997, NCCLS document M11-A4).
(§3) Briefly, the methods were as follows. Cultures were grown for 18-24hrs (aerobic bacteria) or 48-72 hrs (anaerobic bacteria) in the appropriate medium. For aerobic bacteria full strength brain heart infusion medium (BHI, Difco) was used. For anaerobic bacteria, half strength BHI (18.5 g/L) was supplemented by adding yeast extract (10 g/L), hemin (0.29 mL of a stock solution containing 0.1 g/200 mL dH2O) and menadione (15 mL of a stock solution containing 0.15 mL in 30 mL 95% EtOH) was used. Initial cultures were diluted to approximately 1×10^8 CFU/mL for use as an inoculum. Each assay received 10 μL of the inoculum. The drugs were prepared from a stock solution contained in dimethyl sulfoxide (DMSO) and diluted into the culture medium. Final concentrations of the drugs ranged from 50 to 0.05 μg/assay. The tests were run in duplicate and were incubated appropriately with regard to oxygen requirements for 24 to 48 hrs as required. Anaerobic incubation was an atmosphere of 5% CO2, 10% H2, with the balance N2. The lowest concentration of an antimicrobial agent at which no visible growth is noted was referred to as the MIC.
(§4) This embodiment describes the sensitivity of various staphylococcus strains to the compounds of the present invention. The staphylococcus species R is a strain 00-045-1209 from the Children's Hospital in Buffalo. It was isolated from the peritoneal cavity (fluid culture) of an individual. It was coagulase negative. The sensitivity of this strain was tested agaisnt several known antibiotics.

Lact 7496 = assay: MIC microdilution, gram positive; type: cell-based, Lactobacillus rhamnosus (casei); settings: Table 2, Gram Positive
Experimental: as §1

M. luteus = assay: MIC microdilution, gram positive; type: cell-based, Micrococcus luteus; settings: Table 2, Gram Positive
Experimental: as §1

Fuso. 25586 = assay: MIC microdilution, gram negative; type: cell-based, Fusobacterium nucleatum
Experimental: (§5) The MIC's for the compounds were determined by a modified microdilution tube dilution method described in “Methods for Dilution Antimicrobial Susceptibility Tests for Bacteria that Grow Aerobically” (National Committee for Clinical Laboratory Standards Approved Standards, 1997, NCCLS document M7-A4). In general the modifications were made because of the unique growth requirements for the fastidious oral organisms and for those bacteria that require anaerobic conditions. Reference is also made to “Methods for Antimicrobial Susceptibility of Anaerobic Bacteria” (National Committee for Clinical Laboratory Standards Approved Standards, 1997, NCCLS document M11-A4). Briefly, the methods were as follows. Cultures were grown for 18-24hrs (aerobic bacteria) or 48-72 hrs (anaerobic bacteria) in the appropriate medium. For aerobic bacteria full strength brain heart infusion medium (BHI, Difco) was used. For anaerobic bacteria, half strength BHI (18.5 g/L) was supplemented by adding yeast extract (10 g/L), hemin (0.29 mL of a stock solution containing 0.1 g/200 mL dH2O) and menadione (15 mL of a stock solution containing 0.15 mL in 30 mL 95% EtOH) was used. Initial cultures were diluted to approximately 1×10^8 CFU/mL for use as an inoculum. Each assay received 10 μL of the inoculum. The drugs were prepared from a stock solution contained in dimethyl sulfoxide (DMSO) and diluted into the culture medium. Final concentrations of the drugs ranged from 50 to 0.05 μg/assay. The tests were run in duplicate and were incubated appropriately with regard to oxygen requirements for 24 to 48 hrs as required. Anaerobic incubation was an atmosphere of 5% CO2, 10% H2, with the balance N2. The lowest concentration of an antimicrobial agent at which no visible growth is noted was referred to as the MIC. […] The method used was the same as described in Example 1.

Aa Y4 = assay: MIC microdilution, gram negative; type: cell-based, Actinobacillus actinomycetemcomitans
Experimental: as §5

P. ging 381 = assay: MIC microdilution, gram negative; type: cell-based, Porphyromonas gingivalis
Experimental: as §5

Pg 53977 = assay: MIC microdilution, gram negative; type: cell-based, Porphyromonas gingivalis
Experimental: as §5

B. fragilis = assay: MIC microdilution, gram negative; type: cell-based, Bacteroides fraglis
Experimental: as §5

Str. pn. R = assay: Mean Streptococcus MIC; type: cell-based; settings: Table 5, mean; strain resistant to penicillin and erythromycin
Experimental: as §2, §3
(§6) This embodiment illustrates the efficacy of the compounds of the present invention against Streptococcus strains. One of the strains, Str.pn.R was obtained from the Children's Hospital in Buffalo (strain 00-041-0614). […] The sensitivity of this strain was tested against several known antibiotics.

Str. pn = assay: Mean Streptococcus MIC; type: cell-based; settings: Table 5, mean
Experimental: as §2, §3, §6

S. species R = assay: Staphylococcus MIC; type: cell-based, staphylococcus species R; settings: second Table 5 (Example 5); strain 00-045-1209
Experimental: as §2, §3, §4

[1] = tested on: Str.pn.R (strain 00-041-0614); assay: Sensitivity of strain to known antibiotics; type: cell-based, Streptococcus; settings: sensitive / resistant
Experimental: as §6

[2] = tested on: staphylococcus species R (strain 00-045-1209); assay: Sensitivity of strain to known antibiotics; type: cell-based; settings: sensitive / resistant
Experimental: as §4

[3] = Table 3 printed a second time, Gram Negative

- MIC S. sanguis (S. sanguis): 0.8 micrograms/ml
- MIC S.salivarius (S.salivarius): 50 micrograms/ml
- MIC P. acnes 11828 (P. acnes 11828): 0.4 micrograms/ml
- MIC P. acnes 6922 (P. acnes 6922): 0.4 micrograms/ml
- MIC Lact 7496 (Lact 7496): 1.6 micrograms/ml
- MIC M. luteus (M. luteus): 0.8 micrograms/ml
- MIC P. ging 381 (P. ging 381; Table 3, Gram Negative): <0.4 micrograms/ml
- MIC P. ging 381 (P. ging 381; [3]): <0.4 micrograms/ml
- MIC Pg 53977 (Pg 53977; Table 3, Gram Negative): <0.4 micrograms/ml
- MIC Pg 53977 (Pg 53977; [3]): <0.4 micrograms/ml
- Mean Streptococcus MIC values Str. pn. R (Str. pn. R): 0.78 micrograms/ml
- Mean Streptococcus MIC values Str. pn (Str. pn): 0.84 micrograms/ml
- MIC S. species R (S. species R): 25.0 micrograms/ml
Molecule: O=C(c1ccc(O)c(C(=O)Nc2cccc(C(F)(F)F)c2)c1)c1ccc2ccccc2c1 [NA2mF]
- MIC S. mutans (S. mutans): NE (NE indicates that the drug was not effective at a concentration >50 micrograms/ml)
- MIC A. viscosus (A. viscosus): NE (NE indicates that the drug was not effective at a concentration >50 micrograms/ml)
- MIC S. aureus (S. aureus; Table 2, Gram Positive): NE (NE indicates that the drug was not effective at a concentration >50 micrograms/ml)
- MIC S. aureus (S. aureus; second Table 5 (Example 5)): NE (NE indicates that the drug was not effective at a concentration >50 micrograms/ml)
- MIC Fuso. 25586 (Fuso. 25586; Table 3, Gram Negative): NE (NE indicates that the drug was not effective at a concentration >50 micrograms/ml)
- MIC Fuso. 25586 (Fuso. 25586; [3]): NE (NE indicates that the drug was not effective at a concentration >50 micrograms/ml)
- MIC Aa Y4 (Aa Y4; Table 3, Gram Negative): NE (NE indicates that the drug was not effective at a concentration >50 micrograms/ml)
- MIC Aa Y4 (Aa Y4; [3]): NE (NE indicates that the drug was not effective at a concentration >50 micrograms/ml)
- MIC B. fragilis (B. fragilis; Table 3, Gram Negative): NE (NE indicates that the drug was not effective at a concentration >50 micrograms/ml)
- MIC B. fragilis (B. fragilis; [3]): NE (NE indicates that the drug was not effective at a concentration >50 micrograms/ml)

- MIC S. mutans (S. mutans): 1.6 micrograms/ml
- MIC S. sanguis (S. sanguis): 6.3 micrograms/ml
- MIC S.salivarius (S.salivarius): 50 micrograms/ml
- MIC P. acnes 11828 (P. acnes 11828): 6.3 micrograms/ml
- MIC P. acnes 6922 (P. acnes 6922): 6.3 micrograms/ml
- MIC A. viscosus (A. viscosus): 1.6 micrograms/ml
- MIC S. aureus (S. aureus; Table 2, Gram Positive): 6.3 micrograms/ml
- MIC S. aureus (S. aureus; second Table 5 (Example 5)): 6.3 micrograms/ml
- MIC Lact 7496 (Lact 7496): 6.3 micrograms/ml
- MIC M. luteus (M. luteus): 3.1 micrograms/ml
- MIC Fuso. 25586 (Fuso. 25586; Table 3, Gram Negative): 12.5 micrograms/ml
- MIC Fuso. 25586 (Fuso. 25586; [3]): 12.5 micrograms/ml
- MIC Aa Y4 (Aa Y4; Table 3, Gram Negative): 6.3 micrograms/ml
- MIC Aa Y4 (Aa Y4; [3]): 6.3 micrograms/ml
- MIC P. ging 381 (P. ging 381; Table 3, Gram Negative): 0.4 micrograms/ml
- MIC P. ging 381 (P. ging 381; [3]): 0.4 micrograms/ml
- MIC Pg 53977 (Pg 53977; Table 3, Gram Negative): 0.4 micrograms/ml
- MIC Pg 53977 (Pg 53977; [3]): 0.4 micrograms/ml
- MIC B. fragilis (B. fragilis; Table 3, Gram Negative): 3.1 micrograms/ml
- MIC B. fragilis (B. fragilis; [3]): 3.1 micrograms/ml
- Mean Streptococcus MIC values Str. pn. R (Str. pn. R): 3.12 micrograms/ml
- Mean Streptococcus MIC values Str. pn (Str. pn): 0.58 micrograms/ml
- MIC S. species R (S. species R): 12.5 micrograms/ml
Molecule: N#Cc1ccc(NC(=O)c2cc(C(=O)c3ccc4ccccc4c3)ccc2O)cc1 [NA2pC]

Molecule: CO[C@H]1/C=C/O[C@@]2(C)Oc3c(C)c(O)c4c(O)c(c(/C=N/N5CCN(C)CC5)c(O)c4c3C2=O)NC(=O)/C(C)=C\C=C\[C@H](C)[C@H](O)[C@@H](C)[C@@H](O)[C@@H](C)[C@H](OC(C)=O)[C@@H]1C [Rifampin]
- sensitivity of strain Str.pn.R to known antibiotics [1]: sensitive

Molecule: N[C@@H]1[C@H]2CN(c3nc4c(cc3F)c(=O)c(C(=O)O)cn4-c3ccc(F)cc3F)C[C@@H]12 [Trovoflox]
- sensitivity of strain Str.pn.R to known antibiotics [1]: sensitive

Molecule: CN[C@H](CC(C)C)C(=O)N[C@H]1C(=O)N[C@@H](CC(N)=O)C(=O)N[C@H]2C(=O)N[C@H]3C(=O)N[C@H](C(=O)N[C@H](C(=O)O)c4cc(O)cc(O)c4-c4cc3ccc4O)[C@H](O)c3ccc(c(Cl)c3)Oc3cc2cc(c3O[C@@H]2O[C@H](CO)[C@@H](O)[C@H](O)[C@H]2O[C@H]2C[C@](C)(N)[C@H](O)[C@H](C)O2)Oc2ccc(cc2Cl)[C@H]1O [Vancomycin]
- sensitivity of strain Str.pn.R to known antibiotics [1]: sensitive
- sensitivity of staphylococcus species R to known antibiotics [2]: sensitive

Molecule: CC1(C)S[C@@H]2[C@H](NC(=O)[C@H](N)c3ccc(O)cc3)C(=O)N2[C@H]1C(=O)O [amoxicillin]
- sensitivity of staphylococcus species R to known antibiotics [2]: resistant

Molecule: CC[C@H]1OC(=O)[C@H](C)[C@@H](O[C@H]2C[C@@](C)(OC)[C@@H](O)[C@H](C)O2)[C@H](C)[C@@H](O[C@@H]2O[C@H](C)C[C@H](N(C)C)[C@H]2O)[C@](C)(O)C[C@@H](C)CN(C)[C@H](C)[C@@H](O)[C@]1(C)O [azithromycin]
- sensitivity of staphylococcus species R to known antibiotics [2]: resistant

Molecule: CO/N=C(\C(=O)N[C@@H]1C(=O)N2C(C(=O)O)=C(COC(C)=O)CS[C@H]12)c1csc(N)n1 [cefotaxime]
- sensitivity of staphylococcus species R to known antibiotics [2]: resistant

Molecule: Cc1onc(-c2ccccc2)c1C(=O)N[C@@H]1C(=O)N2[C@@H]1SC(C)(C)[C@@H]2C(=O)O [oxacillin]
- sensitivity of staphylococcus species R to known antibiotics [2]: resistant

Molecule: penicillin
- sensitivity of strain Str.pn.R to known antibiotics [1]: resistant

From patent US6407288B1, “Naphthylsalicylanilides as antimicrobial and antiinflammatory agents” (The Research Foundation of State University of New York, priority 2000, dated 2002)
